Measurements published in patent US20030199516A1, “Methods of treating infection by drug resistant bacteria” (Genesoft, Inc., priority 2001, published 2003).

What was measured:
S. aureus ATCC 33591 = test: NCCLS broth microdilution MIC; format: cell-based, Staphylococcus aureus; conditions: Col. B = S. aureus ATCC 33591 (MRSA)
Excerpt: (§1) In vitro antibacterial activity data were collected for the following Gram-positive bacteria: Staphylococcus aureus (ATCC 27660, ATCC 33591 and ATCC 43300, all methicillin resistant strains (MRSA's)); Streptococcus pneumoniae (ATCC 51422, a penicillin resistant strain (PRSP)), Enterococcus faecium (ATCC 51559, and/or a vancomycin resistant strain (VRE)). Additionally, antifungal activity data were collected for Candida albicans (ATCC 38247). Minimal inhibition concentrations (MIC's) were determined using the National Committee for Clinical Laboratory Standards (NCCLS) broth microdilution assay in microtiter plates, as set forth in: (1) the guidelines of the National Committee for Clinical Laboratory Standards (NCCLS) Document M7-A4 (NCCLS, 1997); (2) the guidelines of the National Committee for Clinical Laboratory Standards (NCCLS) Document M11-A4 (NCCLS, 1997); and (3) the guidelines and reference method of the National Committee for Clinical Laboratory Standards (NCCLS) Document M27-T (NCCLS, 1995). For antifungal essays, the method recommended in Murray, PR., 1995 Manual of Clinical Microbiology (ASM Press, Washington, D.C.), was employed.

S. aureus ATCC 27660 = test: NCCLS broth microdilution MIC; format: cell-based, Staphylococcus aureus; conditions: Col. A = S. aureus ATCC 27660 (MRSA)
Excerpt: as §1

[1] = tested on: Enterococcus faecium ATCC 51559; test: NCCLS broth microdilution MIC; format: cell-based; conditions: Col. D = E. faecium ATCC 51559 (VRE)
Excerpt: as §1

[2] = tested on: Streptococcus pneumoniae ATCC 51422; test: NCCLS broth microdilution MIC; format: cell-based; conditions: Col. E = S. pneumoniae ATCC 51422 (PRSP)
Excerpt: as §1

[3] = tested on: Candida albicans ATCC 38247; test: Antifungal MIC; format: cell-based; conditions: Col. F = C. albicans ATCC 38247
Excerpt: as §1

[4] = target: target sequence AATTAATCAT (352 bp fragment, Plasmid C); test: Quantitative DNase I footprint titration; format: binding; conditions: 352 bp C, 22° C., pH 7.0, read-out: Dissociation Constant Kd
Excerpt: (§2) Compounds (1) through (20) according to this invention were screened for their ability to bind to specified DNA target sequences, using DNase I footprinting. Generally, the procedure described in Dervan, WO 98/50582 (1998), was followed.
(§3) Three double stranded circular plasmids A, B, and C were used to prepare double stranded DNA-binding probes containing the target sequences for the DNase I footprint titration experiments. Plasmids A, B, and C had nucleotide sequences given by SEQ ID NO. I, SEQ ID NO. II, and SEQ ID NO. III, respectively.
(§4) The 3′-P32 end-labeled EcoRI/PvuII fragments from each plasmid were prepared by digesting the plasmids with EcoRI and PvuII with simultaneous fill-in using Sequenase v. 2.0, [alpha-P32]-deoxyadenosine-5′-triphosphate, and [alpha-P32]-thymidine-5′-triphosphate, and isolating the cloned fragments by nondenaturing gel electrophoresis. A and G sequencing reactions were carried out as described (See Maxam and Gilbert, Methods Enzymol., 1980, 65, 499-560; Iverson and Dervan, Methods Enzymol., 1987, 15, 7823-7830; Sambrook et al., 1989, Molecular Cloning, 2nd ed., Cold Spring Harbor Laboratory Press: Cold Spring Harbor, N.Y.) Standard methods were used for all DNA manipulations (Sambrook et al., ibid.) The cut sites for EcoRI and PvuII are indicated by bars in the respective maps of Plasmids A, B, and C in FIGS. 5, 6, and 7.
(§5) The 351 base pair dsDNA restriction fragment (SEQ ID NO. IV) of Plasmid A contained the target sequences AAAAAGCAAAAA, AAAAAGACAAAAA, and AAAAAGTACAAAAA. The 310 base pair dsDNA restriction fragment (SEQ ID NO. V) of Plasmid B contained the target sequences AGTACT, AATACT, and ATTACT. The 352 base pair dsDNA restriction fragment (SEQ ID NO. VI) of Plasmid C contained the target sequences TGACAATTAAT, GACAATTAATCA, AATTAATCAT, ACAATTA, and ACAATTAAT. These fragments were used for quantitative DNase I footprinting experiments. Compounds used in the method of this invention bind to at least one of the target sites with a equal to or less than 100 nM, preferably equal to or less than 50 nM, and more preferably equal to or less than 20 nM. The target sequences were selected for the identity with, or similarity to, promoter sites for bacterial genes.
(§6) Quantitative DNase I footprint titration experiments were carried out as described previously (Dervan, WO 98/50582, 1998) with the following changes. All reactions were carried out in a total volume of 400 μL, with compound stock solution or water added to 15,000 cpm radiolabeled restriction fragment affording final solution conditions of 10 mM Tris HCl, 10 mM KCl, 10 mM MgCl2, 5 mM CaCl2, pH 7.0 and 0.01 nM, 0.1 nM, 1.0 nM, 10.0 nM compound or no compound for reference lanes. The compounds were allowed to equilbrate at 22° C. for 16 h. Footprinting reactions were initiated with addition of 10 μL of a DNase I stock solution (at the appropriate concentration to give ˜50% intact DNA) containing 1 mM DTT and allowed to proceed for 7 min at 22° C. The reactions were stopped, ethanol precipitated, resuspended in loading buffer, heat denatured, and placed on ice as described previously (Dervan WO 98/50582, 1998). The reaction products were separated on a precast 8% polyacrylamide denaturing sequencing Castaway gel with 32 preformed wells from Stratagene in 1×TBE at 2000 V. Gels were dried according to the manufacturer and exposed to a storage phosphor screen (Molecular Dynamics). Quantitation and data analysis were carried out as described in Dervan, WO 98/50582, 1998.

[5] = target: target sequence […] (351 bp fragment, Plasmid A); test: Quantitative DNase I footprint titration; format: binding; conditions: AAAAAGTACAAAAA, 351 bp A; 22° C., pH 7.0; read-out: Dissociation Constant Kd
Excerpt: as §2, §3, §4, §5, §6

[6] = target: target sequence GACAATTAATCA (352 bp fragment, Plasmid C); test: Quantitative DNase I footprint titration; format: binding; conditions: 352 bp C, 22° C., pH 7.0, read-out: Dissociation Constant Kd
Excerpt: as §2, §3, §4, §5, §6

[7] = target: target sequence TGACAATTAAT (352 bp fragment, Plasmid C); test: Quantitative DNase I footprint titration; format: binding; conditions: 352 bp C, 22° C., pH 7.0, read-out: Dissociation Constant Kd
Excerpt: as §2, §3, §4, §5, §6

S. aureus ATCC 43300 = test: NCCLS broth microdilution MIC; format: cell-based, Staphylococcus aureus; conditions: Col. C = S. aureus ATCC 43300 (MRSA)
Excerpt: as §1

SMILES | Minimum Inhibitory Concentration (MIC) (S. aureus ATCC 33591) | Minimum Inhibitory Concentration (MIC) (S. aureus ATCC 27660) | Minimum Inhibitory Concentration (MIC) [1] | Minimum Inhibitory Concentration (MIC) [2] | Minimum Inhibitory Concentration (MIC) [3] | Kd [4] | Kd [5] | Kd [6] | Kd [7] | Minimum Inhibitory Concentration (MIC) (S. aureus ATCC 43300)
Cn1cc(NC(=O)c2sc3ccccc3c2Cl)cc1C(=O)Nc1cc(C(=O)NCCN2CCCCC2)n(CCN2CCOCC2)c1 [Compound 16] | ++ (++ = MIC ≦ 1) | ++ (++ = MIC ≦ 1) | ++ (++ = MIC ≦ 1) | ++ (++ = MIC ≦ 1) | 4 µg/mL | 10 nM | – | – | – | –
Cn1cc(NC(=O)c2sc3ccccc3c2Cl)cc1-c1nc2ccc(C(=O)NCCN3CCCCC3)cc2[nH]1 [Compound 18] | ++ (++ = MIC ≦ 1) | ++ (++ = MIC ≦ 1) | ++ (++ = MIC ≦ 1) | ++ (++ = MIC ≦ 1) | >32 µg/mL | 5 nM | – | – | – | –
CN(C)CC(C)(C)CNC(=O)CCNC(=O)c1cc(NC(=O)c2cc(NC(=O)CCNC(=O)c3cc(NC(=O)c4cc(NC(=O)c5cc(Br)c(Br)s5)cn4C)cn3C)cn2C)cn1C [Compound 5] | ++ (++ = MIC ≦ 1) | ++ (++ = MIC ≦ 1) | − (− = MIC > 2) | ++ (++ = MIC ≦ 1) | >32 µg/mL | – | 0.01 nM | 2 nM | – | –
Cn1cc(NC(=O)c2cc(NC(=O)c3cc(NC(=O)c4sccc4Cl)cn3C)cn2C)cc1C(=O)NCCN1CCSCC1 [Compound 11] | − (− = MIC > 2) | + (+ = MIC ≦ 2) | + (+ = MIC ≦ 2) | ++ (++ = MIC ≦ 1) | >32 µg/mL | – | – | ≤ 1 nM | – | –
Cn1cc(NC(=O)c2cc(NC(=O)CCNC(=O)c3cc(NC(=O)c4cc(NC(=O)c5cc(Br)c(Br)s5)cn4C)cn3C)cn2C)cc1C(=O)NCCC(=O)NCCN1CCCCC1 [Compound 3] | ++ (++ = MIC ≦ 1) | ++ (++ = MIC ≦ 1) | + (+ = MIC ≦ 2) | ++ (++ = MIC ≦ 1) | >32 µg/mL | – | 0.01 nM | – | 2 nM | –
CC(C)N(CCNC(=O)CCNC(=O)c1cc(NC(=O)c2cc(NC(=O)CCNC(=O)c3cc(NC(=O)c4cc(NC(=O)c5cc(Br)c(Br)s5)cn4C)cn3C)cn2C)cn1C)C(C)C [Compound 2] | − (− = MIC > 2) | ++ (++ = MIC ≦ 1) | + (+ = MIC ≦ 2) | ++ (++ = MIC ≦ 1) | >32 µg/mL | – | 0.2 nM | – | 10 nM | –
Cn1cc(NC(=O)c2cc(NC(=O)c3cc(NC(=O)c4ccc(F)cc4F)cn3C)cn2C)cc1C(=O)NCCN1CCCCCC1 [Compound 15] | − (− = MIC > 2) | ++ (++ = MIC ≦ 1) | + (+ = MIC ≦ 2) | ++ (++ = MIC ≦ 1) | 8 µg/mL | 2 nM | – | – | – | –
CCN(CC)CCCNC(=O)CCNC(=O)c1cc(NC(=O)c2cc(NC(=O)CCNC(=O)c3cc(NC(=O)c4cc(NC(=O)c5cc(Br)c(Br)s5)cn4C)cn3C)cn2C)cn1C [Compound 4] | ++ (++ = MIC ≦ 1) | ++ (++ = MIC ≦ 1) | − (− = MIC > 2) | ++ (++ = MIC ≦ 1) | >32 µg/mL | – | 0.01 nM | – | 10 nM | –
Cn1cc(NC(=O)c2cc(NC(=O)c3cc(NC(=O)c4sc5ccccc5c4Cl)cn3C)cn2C)cc1C(=O)NCCN1CCOCC1 [Compound 8] | ++ (++ = MIC ≦ 1) | ++ (++ = MIC ≦ 1) | ++ (++ = MIC ≦ 1) | ++ (++ = MIC ≦ 1) | >32 µg/mL | 0.2 nM | – | – | – | ++ (++ = MIC ≦ 1)
